Test results as given in patent US7144867B2, “Anticancer glycoside compounds” (priority 2004, dated 2006).
Marks after values point to notes of the source that are not given here.

Tests used:
AsPC-1 cells [1] = experiment: Annexin V assay; type: cell-based, human; details: 4 μg/mL, within 3 hours
Protocol: Annexin V assay. […] The cells were then rinsed with PBS and 500 μL of assay buffer once. Then, 200 μL of assay buffer, 4 μL of annexin-V FITC, and 20 μL of propidium iodide were added to each coverslip. The coverslip were then incubated at room temperature for 15 min in the dark and washed once with PBS. Cells were finally viewed under fluorescence microscope using a dual filter set for FITC and rhodamine, and pictures were taken using a Kodak DC 120 digital zoom camera (Eastman Kodak Company, Rochester, N.Y.).

AsPC-1 cells [2] = experiment: TUNEL assay; type: cell-based, human; details: 4 μg/mL, 72 hours; control 2.4%, P<0.001
Protocol: Terminal deoxynucleotidyl transferase-mediated deoxyuridine triphosphate nick-end labeling (TUNEL) assay. The assay was carried out for terminal incorporation of fluorescein 12-dUTP by terminal deoxynucleotidyl transferase into fragmented DNA in cancer cells (TUNEL assay kits, Promega, Madison, Wis.). Cells were cultured to 50%–60% confluence in T75 flasks in serum-free conditions for 24 hours and then treated with or without 4 μg/mL Frondoside A for 72 hours. Cells were then trypsinized and fixed in 1% methanol-free formaldehyde-PBS for 15 minutes. At the end of treatment, cells were harvested with trypsin-EDTA solution to produce a single cell suspension. Cells were then pelleted by centrifugation and washed twice with PBS. Cell pellets were suspended in 0.5 ml PBS and fixed in ice-cold 70% ethanol at 4° C. Fixed cells were centrifuged at 300×g for 10 minutes and pellets were washed with PBS. After resuspension with 1 ml PBS, cells were incubated with 10 μL of RNase I (10 mg/mL) and 100 μL of propidium iodide (400 μg/mL; Sigma) and shaken for 1 hour at 37° C. in the dark. Samples were analyzed by flow cytometry. Laser flow cytometry was used to quantify the green fluorescence of fluorescein-12-dUTP incorporated against the red fluorescence of propidium iodide.

Bcl-2 = experiment: Western blotting, Bcl-2 in AsPC-1 cells; type: cell-based, human; details: 4 μg/mL, time-dependent (FIG. 4)
Protocol: (§1) Western blotting. Cells were seeded into flasks and cultured to 50% to 60% confluence for 24 hours. Cells were then placed in serum-free medium with or without 4 μg/mL frondoside A for periods of 0, 24, 48 and 72 hours respectively. Proteins were extracted from attached and floating cells in lysis buffer containing 4% SDS. Protein concentrations were determined using the bicinchoninic acid assay with BSA as standard. Western blotting was carried out. In brief, equal amounts of protein in the cell lysates were separated on 15% SDS-PAGE and the proteins were transferred onto nitrocellulose membranes. After blocking non-specific sites with dried milk, membranes were incubated with the appropriate dilution of primary antibody. Membranes were then incubated with a horseradish peroxidase conjugated secondary antibody. Proteins were detected using an enhanced chemiluminescence detection system.

Bax = experiment: Western blotting, Bax in AsPC-1 cells; type: cell-based, human; details: 4 μg/mL (FIG. 4)
Protocol: as §1

[3] = system: AsPC-1 human pancreatic cancer xenografts; experiment: AsPC-1 xenografts in athymic mice; type: in vivo; details: 10 μg/kg/day intraperitoneal, 4 weeks
Protocol: Animal Study. Athymic mice (BALB/c nu/nu, 5-week old females) were purchased from Charles River Laboratories (Wilmington, Mass.). Mice were acclimatized to the animal facility for one week prior to receiving xenografts. Xenografts of three million AsPC-1 cells were injected into the flanks of mice. Once visible tumors were evidenced 4–5 days after injection, the animals were divided equally into two groups (6 animals/group) and treated with frondoside A (10 μg/kg/day) or control vehicle (100 μL phosphate-buffered saline, PBS) by intraperitoneal injection. Animal weight and tumor size were recorded every three days. The formula used for tumor volume was (length)H(width)H(length+width/2)H0.526=volume (Naito et al., Int. J. Cancer 58:730 [1994]). After 4-weeks of treatment the animals were euthanized and the tumors were carefully dissected and tumor weights measured.

[4] = system: HUVEC (human umbilical vein endothelial cells); experiment: Angiogenesis, tube formation on Matrigel; type: cell-based; details: for %, Inhibition of the total tube length (Mean ± SEM, n = 2): HUVEC, 18 hours
Protocol: Test Substance and Concentration.
Cell Line and Culture Media.
Evaluation of anti-proliferation for test substances. Matrigel matrix was thawed, kept on ice at 4° C. and 50 μL transferred to each well of a 96-microwell tissue culture plate. The plate was incubated at 37° C. for at least one hour to allow the matrix solution to solidify before treatment.
Aliquots of 200 μl of (HUVEC) suspension (about 1.5×10^4 cells/well) were placed in 96-well microtiter plate. Two microliters of compound test solution or vehicle (40% DMSO) was then added per well in duplicate and incubated at 5% CO2 at 37° C. for 18 hours. The final concentration of DMSO was 0.4%. […] Failure to form continuous networks between cell bodies in the presence of test substance was photographed and scored as to the extent of tube disruption at a magnification of 40×. […] The minimum inhibitory concentration (MIC) was calculated to assess the effect of the test substance on angiogenesis.

[5] = system: angiogenesis in the animal; experiment: Treatment of animals, anti-angiogenic evaluation (Example 6); type: in vivo; details: contemplated; range of appropriate doses
Protocol: Frondoside A or B is evaluated for anti-angiogenic (e.g., for research, drug screening or therapeutic purposes) in live animals. Animals (e.g., having or modeling a disease characterized by unwanted angiogenesis) are treated with a range of appropriate doses of Frondoside A or B. Exemplary dosages and dosage schedules include, but are not limited to, those described herein.

Question: Which “Annexin V binding” value (AsPC-1 cells [1]) does the source give for `COC1C(O)C(CO)OC(OC2C(O)COC(OC3C(C)OC(OC4C(OC5CCC6(C)C7CCC89C(=O)OC(C)(CCCC(C)C)C8C(OC(C)=O)CC9(C)C7=CCC6C5(C)C)OCC(OS(=O)(=O)[O-])C4O)C(OC4OCC(O)C(O)C4O)C3O)C2O)C1O.[Na+]` [Frondoside A, 3-O-methyl-β-D-glucopyranosyl-(1→3)-β-D-xylopyranosyl-(1→4)-[β-D-xylopyranosyl-(1→2)]-β-D-quinovopyranosyl-(1→2)-4-O-sodium sulfate-β-D-xylopyranosyl-3-O-holost-7(8)-en-3β-ol-16β-O-acetate] here?
Answer: Annexin V binding was observed

Question: What about the TUNEL staining (AsPC-1 cells [2]) of the same compound?
Answer: 36.1%

Question: What about the “expression of Bcl-2” value (Bcl-2) of the same compound?
Answer: decreased expression

Question: What about the “concentrations of the pro-apoptotic protein Bax” value (Bax) of the same compound?
Answer: increased

Question: And the “body weights of control and treated animals” value ([3]; athymic mice)?
Answer: no significant difference

Question: What about the “toxicity through the treatment period” value ([3]; athymic mice) of the same compound?
Answer: No toxicity was seen

Question: What about the “growth of subcutaneously transplanted AsPC-1 cells (tumor volume and tumor weight)” value ([3]; athymic mice (FIG. 6)) of the same compound?
Answer: markedly inhibited the growth

Question: What about the “inhibition of tube formation relative to the vehicle-treated controls” value ([4]; 100, 10 and 1 μM (≧30%)) of the same compound?
Answer: significant inhibition

Question: And the “%, Inhibition of the total tube length (Mean ± SEM, n = 2)” value (shortened to “%, Inhibition … (Mean ± SEM, n = 2)”) ([4]; 0.01 μM)?
Answer: 1 ± 1%

Question: What about the “%, Inhibition … (Mean ± SEM, n = 2)” value ([4]; 0.1 μM) of the same compound?
Answer: 3 ± 4%

Question: What about the “%, Inhibition … (Mean ± SEM, n = 2)” value ([4]; 1 μM) of the same compound?
Answer: 88 ± 6^a,b %

Question: And the “%, Inhibition … (Mean ± SEM, n = 2)” value ([4]; 10 μM)?
Answer: 100 ± 0^a %

Question: What about the “%, Inhibition … (Mean ± SEM, n = 2)” value ([4]; 100 μM) of the same compound?
Answer: 100 ± 0^a %

Question: What about the “MIC (Minimum Inhibitory Concentration)” value ([4]; tube formation, significant inhibition ≧30%) of the same compound?
Answer: 1 µM

Question: And the “angiogenesis in the animal” value [5]?
Answer: inhibits angiogenesis
